From patent US20240150377A1, “MODULATORS OF CYSTIC FIBROSIS TRANSMEMBRANE CONDUCTANCE REGULATOR” (VERTEX PHARMACEUTICALS INCORPORATED, priority 2020, published 2024)
Read-outs that look alike come from different tables or passages of the source. One block for each compound: values may come before it.

Target: T1, CFTR (Homo sapiens, UniProt P13569, DEL508-508)
T1 construct: endogenous in cells; host or cells: primary human bronchial epithelial cells from CF subjects (F508del/MF-HBE), differentiated at air-liquid interface
Assay: HBE assay: Ussing chamber assay of CFTR-mediated short-circuit currents
Type: cell-based
Conditions: for EC50: read-out: HBE EC50
Procedure, shortened: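 CFTR-mediated Isc (μA/cm²) equals the peak response to apical 20 μM forskolin minus the residual after a 20 μM each BPO/GlyH-101/CFTR inhibitor 172 cocktail, recorded in Ussing chambers at Vhold 0 mV, 37 °C, pH 7.4, with 30 μM apical amiloride. Cells were F508del/MF HBE cultures preincubated 18-24 h with corrector (concentration range or 10 μM) plus 1 μM ivacaftor in 20% human serum.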

[1] = Table 11, read-out: HBE Max Activity (%)
[2] = Table 12, at 10 μM, read-out: HBE Activity at 10 μM (%)
[3] = Table 12, read-out: HBE Max Activity (%)
[4] = Table 10, read-out: HBE Max activity (%)
[5] = HBE assay, read-out: HBE Max activity (%)
[6] = Table 13, read-out: HBE Max Activity (%)
[7] = Table 11, at 10 μM, read-out: HBE Activity at 10 μM (%)
[8] = Table 13, at 10 μM, read-out: HBE Activity at 10 μM (%)

T1 sequence (P13569 with tags, fused parts or gaps DEL508-508): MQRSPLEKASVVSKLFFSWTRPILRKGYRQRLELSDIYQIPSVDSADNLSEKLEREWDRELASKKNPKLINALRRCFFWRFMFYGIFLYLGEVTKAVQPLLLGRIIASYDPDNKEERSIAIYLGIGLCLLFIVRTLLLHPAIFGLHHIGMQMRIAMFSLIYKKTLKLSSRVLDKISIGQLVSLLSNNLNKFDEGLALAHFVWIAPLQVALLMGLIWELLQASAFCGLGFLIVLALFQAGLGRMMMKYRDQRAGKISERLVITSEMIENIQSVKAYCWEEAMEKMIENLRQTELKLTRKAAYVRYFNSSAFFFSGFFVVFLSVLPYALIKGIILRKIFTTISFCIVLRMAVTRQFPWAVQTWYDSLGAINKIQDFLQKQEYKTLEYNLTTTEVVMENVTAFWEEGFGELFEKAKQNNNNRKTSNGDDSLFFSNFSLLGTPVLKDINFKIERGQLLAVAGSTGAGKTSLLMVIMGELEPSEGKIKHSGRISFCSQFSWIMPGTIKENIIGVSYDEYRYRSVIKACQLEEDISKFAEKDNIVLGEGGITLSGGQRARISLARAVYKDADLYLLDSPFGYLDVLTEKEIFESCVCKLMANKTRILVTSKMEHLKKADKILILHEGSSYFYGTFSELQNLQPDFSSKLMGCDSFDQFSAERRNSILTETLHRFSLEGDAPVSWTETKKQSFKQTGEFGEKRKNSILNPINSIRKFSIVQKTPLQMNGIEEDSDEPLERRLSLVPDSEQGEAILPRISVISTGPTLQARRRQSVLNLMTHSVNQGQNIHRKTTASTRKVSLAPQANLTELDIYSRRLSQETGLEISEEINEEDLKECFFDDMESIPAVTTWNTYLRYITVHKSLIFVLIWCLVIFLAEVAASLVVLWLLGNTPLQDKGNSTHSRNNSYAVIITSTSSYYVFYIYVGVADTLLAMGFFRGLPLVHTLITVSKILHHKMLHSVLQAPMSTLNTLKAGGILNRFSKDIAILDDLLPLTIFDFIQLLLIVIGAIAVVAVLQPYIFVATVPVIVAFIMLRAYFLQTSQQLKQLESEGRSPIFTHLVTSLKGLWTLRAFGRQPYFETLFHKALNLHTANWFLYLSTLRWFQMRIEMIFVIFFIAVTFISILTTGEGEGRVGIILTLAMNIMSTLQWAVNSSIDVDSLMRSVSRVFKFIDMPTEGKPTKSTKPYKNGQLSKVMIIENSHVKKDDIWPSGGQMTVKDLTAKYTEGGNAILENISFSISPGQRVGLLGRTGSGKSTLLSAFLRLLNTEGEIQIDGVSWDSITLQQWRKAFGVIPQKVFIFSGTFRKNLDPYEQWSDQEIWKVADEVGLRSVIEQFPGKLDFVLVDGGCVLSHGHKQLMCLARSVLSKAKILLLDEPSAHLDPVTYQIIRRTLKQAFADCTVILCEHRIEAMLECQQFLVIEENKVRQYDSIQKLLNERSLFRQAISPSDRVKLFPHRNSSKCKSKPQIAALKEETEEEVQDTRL

activation at 10 µM (Table 10, at 10 μM, read-out: HBE activity at 10 (μM) (%)): > 60%
SMILES: Cc1cccc(C)c1-c1cc2nc(n1)NS(=O)(=O)c1cccc(c1)C(=O)N(Cc1cnn(C)c1C)[C@H](CC(C)(C)C)CO2 [Compound 824]

EC50 (HBE assay): < 1000 nM
Emax [5]: > 60%
SMILES: CCO[C@H]1CCN(c2cnc(CN3C(=O)c4cccc(c4)S(=O)(=O)Nc4nc(cc(-c5c(C)cccc5C)n4)OC[C@H]3CC(C)(C)C)nc2)C1 [Compound 1438]

EC50 (Table 11): < 1000 nM
Emax [1]: > 60%
SMILES: COc1cncc(CN2C(=O)c3cccc(c3)S(=O)(=O)Nc3nc(cc(-c4c(C)cccc4C)n3)OC[C@H]2CC(C)(C)C)n1 [Compound 884]

EC50 (Table 13): < 1000 nM
Emax [6]: > 60%
SMILES: Cc1cccc(C)c1-c1cc2nc(n1)NS(=O)(=O)c1cccc(n1)C(=O)N(Cc1ncc(OC(C)C)cn1)[C@H](CC(C)(C)C)CO2 [Compound 1128]

EC50 (Table 13): < 1000 nM
Emax [6]: > 60%
SMILES: Cc1cccc(C)c1-c1cc2nc(n1)NS(=O)(=O)c1cccc(c1)C(=O)N(Cc1ncc(N3CCOC4(CCC4)C3)cn1)[C@H](CC(C)(C)C)CO2 [Compound 1146]

EC50 (Table 11): < 1000 nM
Emax [1]: > 60%
SMILES: Cc1cncc(CN2C(=O)c3cccc(c3)S(=O)(=O)Nc3nc(cc(-c4c(C)cccc4C)n3)OC[C@H]2CC(C)(C)C)n1 [Compound 1069]

EC50 (Table 13): < 1000 nM
Emax [6]: > 60%
SMILES: Cc1ccc(N(C)C2CC3(CC3)C2)nc1CN1C(=O)c2cccc(c2)S(=O)(=O)Nc2nc(cc(-c3c(C)cccc3C)n2)OC[C@H]1CC(C)(C)C [Compound 1140]

activation at 10 µM [8]: > 600%
SMILES: COC(=O)NC1CC2(CC(CN3C(=O)c4cccc(c4)S(=O)(=O)Nc4nc(cc(-c5c(C)cccc5C)n4)OC[C@H]3CC(C)(C)C)C2)C1 (some centres unmarked) [Compound 1001]

activation at 10 µM [7]: > 60%
SMILES: Cc1cccc(C)c1-c1cc2nc(n1)NS(=O)(=O)c1cccc(c1)C(=O)N(CC1CCOC1)[C@H](CC(C)(C)C)CO2 (some centres unmarked) [Compound 901]

EC50 (Table 12): < 1000 nM
Emax [3]: > 60%
SMILES: Cc1cccc(C)c1-c1cc2nc(n1)NS(=O)(=O)c1cccc(c1)C(=O)N(Cc1cncc(N3CCC(C)(C)C3)c1)[C@H](CC(C)(C)C)CO2 [Compound 285]

activation at 10 µM [8]: > 600%
SMILES: Cc1cccc(C)c1-c1cc2nc(n1)NS(=O)(=O)c1cccc(c1)C(=O)N(CC(=O)N1C[C@@H](C)O[C@@H](C)C1)[C@H](CC(C)(C)C)CO2 [Compound 199]

Emax [4]: > 60%
SMILES: CC(C)c1cccc(C(C)C)c1-c1cc2nc(n1)NS(=O)(=O)c1cccc(c1)C(=O)N(Cc1ccc(N3CCOCC3)cn1)[C@H](CC(C)(C)C)CO2 [Compound 831]

Continued, compound first:

SMILES: Cc1cccc(C)c1-c1cc2nc(n1)NS(=O)(=O)c1cccc(c1)C(=O)N(Cc1cncc(N(C)CC(C)(C)C)n1)[C@H](CC(C)(C)C)CO2 [Compound 62, (11R)-6-(2,6-Dimethylphenyl)-11-(2,2-dimethylpropyl)-12-({6-[(2,2-dimethylpropyl)(methyl)amino]pyrazin-2-yl}methyl)-9-oxa-2λ^6-thia-3,5,12,19-tetraazatricyclo[12.3.1.14,8]nonadeca-1(18),4,6,8(19),14,16-hexaene-2,2,13-trione]
EC50 (Table 11): < 1000 nM
Emax [1]: > 60%

SMILES: Cc1cccc(C)c1-c1cc2cc(n1)NS(=O)(=O)c1cccc(c1)C(=O)N(Cc1ncc(CC(C)C)cn1)[C@H](CC(C)(C)C)CO2 [Compound 523]
activation at 10 µM [2]: > 600%

SMILES: Cc1cccc(C)c1-c1cc2nc(n1)NS(=O)(=O)c1cccc(c1)C(=O)N(Cc1coc(C(C)C)n1)[C@H](CC(C)(C)C)CO2 [Compound 703]
EC50 (Table 12): < 1000 nM
Emax [3]: > 60%

SMILES: Cc1cccc(C)c1-c1cc2nc(n1)NS(=O)(=O)c1cccc(c1)C(=O)N(Cc1ccc(-c3c(C)noc3C)cc1)[C@H](CC(C)(C)C)CO2 [Compound 292]
Emax [4]: > 60%

SMILES: Cc1cccc(C)c1-c1cc2nc(n1)NS(=O)(=O)c1cccc(c1)C(=O)N(Cc1ncc(OCC(C)C)cn1)[C@H](CC(C)(C)C)CO2 [Compound 1396]
EC50 (HBE assay): < 1000 nM
Emax [5]: > 60%

SMILES: Cc1cccc(C)c1-c1cc2nc(n1)NS(=O)(=O)c1cccc(c1)C(=O)N(Cc1cncc(OC(C)C)n1)[C@H](CC(C)(C)C)CO2 [Compound 894]
EC50 (Table 11): < 1000 nM
Emax [1]: > 60%

SMILES: Cc1cccc(C)c1-c1cc2nc(n1)NS(=O)(=O)c1cccc(c1)C(=O)N(Cc1nccc(NC(C)C)c1F)[C@H](CC(C)(C)C)CO2 [Compound 1132]
EC50 (Table 13): < 1000 nM
Emax [6]: > 60%

SMILES: Cc1cccc(C)c1-c1cc2nc(n1)NS(=O)(=O)c1cccc(c1)C(=O)N(Cc1cccc(C(C)C)n1)[C@H](CC(C)(C)C)CO2 [Compound 729]
EC50 (Table 11): < 1000 nM
Emax [1]: > 60%

SMILES: Cc1cccc(C)c1-c1cc2nc(n1)NS(=O)(=O)c1cccc(c1)C(=O)N(Cc1ncc(N3CC(OC(C)C)C3)cn1)[C@H](CC(C)(C)C)CO2 [Compound 1404]
EC50 (HBE assay): < 1000 nM
Emax [5]: > 60%

SMILES: Cc1cccc(C)c1-c1cc2nc(n1)NS(=O)(=O)c1cccc(c1)C(=O)N(Cc1cc3c(cn1)OCCO3)[C@H](CC(C)(C)C)CO2 [Compound 758]
activation at 10 µM [7]: > 60%

SMILES: Cc1cccc(C)c1-c1cc2nc(n1)NS(=O)(=O)c1cccc(c1)C(=O)N(Cc1ncc(N3CCC(C)(C)C3)cn1)[C@H](C(C)C)CO2 [Compound 695]
activation at 10 µM [2]: > 600%
EC50 (Table 12): < 1000 nM
Emax [3]: < 30%

SMILES: Cc1cccc(C)c1-c1cc2nc(n1)NS(=O)(=O)c1cccc(c1)C(=O)N(Cc1cnc(C(C)C)cn1)[C@H](CC(C)(C)C)CO2 [Compound 893]
EC50 (Table 11): < 1000 nM
Emax [1]: > 60%

SMILES: Cc1cccc(C)c1-c1cc2nc(n1)NS(=O)(=O)c1cccc(c1)C(=O)N(Cc1ccc(N3CC4(CCCO4)C3)cn1)[C@H](CC(C)(C)C)CO2 [Compound 1058]
EC50 (Table 13): < 1000 nM
Emax [6]: > 60%

SMILES: Cc1cccc(C)c1-c1cc2nc(n1)NS(=O)(=O)c1cccc(c1)C(=O)N(Cc1ncc3c(n1)CCOC3)[C@H](CC(C)(C)C)CO2 [Compound 1362]
activation at 10 µM (HBE assay, 10 μM, read-out: HBE Activity at 10 μM (%)): > 60%

SMILES: Cc1cccc(C)c1-c1cc2nc(n1)NS(=O)(=O)c1cccc(c1)C(=O)N(Cc1nccc(C(C)(C)C)n1)[C@H](CC(C)(C)C)CO2 [Compound 814]
EC50 (Table 11): < 1000 nM
Emax [1]: > 60%

SMILES: Cc1cccc(C)c1-c1cc2nc(n1)NS(=O)(=O)c1cccc(c1)C(=O)N(Cc1cccc3ccnn13)[C@H](CC(C)(C)C)CO2 [Compound 878]
activation at 10 µM [2]: > 600%

SMILES: Cc1cc(C)nc(CN2C(=O)c3cccc(c3)S(=O)(=O)Nc3nc(cc(-c4c(C)cccc4C)n3)OC[C@H]2CC(C)(C)C)n1 [Compound 1009]
EC50 (Table 12): < 1000 nM
Emax [3]: > 60%

SMILES: Cc1cccc(C)c1-c1cc2nc(n1)NS(=O)(=O)c1cccc(c1)C(=O)N(Cc1ncc(C3CCCC3)cn1)[C@H](CC(C)(C)C)CO2 [Compound 638]
EC50 (Table 11): 1000 to 3000 nM
Emax [1]: > 60%

SMILES: Cc1cccc(C)c1-c1cc2nc(n1)NS(=O)(=O)c1cccc(c1)C(=O)N(C[C@H]1C[C@@H](NC(=O)OC(C)C)C1)[C@H](CC(C)(C)C)CO2 [Compound 1005]
EC50 (Table 12): < 1000 nM
Emax [3]: > 60%

SMILES: Cc1cccc(C)c1-c1cc2nc(n1)NS(=O)(=O)c1cccc(c1)C(=O)N(CC1CC(C)(C)C1)[C@H](CC(C)(C)C)CO2 [Compound 1007]
activation at 10 µM [2]: > 600%

SMILES: Cc1cccc(C)c1-c1cc2nc(n1)NS(=O)(=O)c1cccc(c1)C(=O)N(Cc1cc(C3CC3)on1)[C@H](CC(C)(C)C)CO2 [Compound 1071]
EC50 (Table 11): < 1000 nM
Emax [1]: > 60%

SMILES: Cc1cccc(C)c1-c1cc2nc(n1)NS(=O)(=O)c1cccc(c1)C(=O)N(Cc1ccc(C3=CCN=N3)cc1)[C@H](CC(C)(C)C)CO2 [Compound 289]
Emax [4]: > 60%

SMILES: Cc1cccc(C)c1-c1cc2nc(n1)NS(=O)(=O)c1cccc(c1)C(=O)N(Cc1ncc(N3CC4CC4C3)cn1)[C@H](CC(C)(C)C)CO2 (some centres unmarked) [Compound 717]
EC50 (Table 11): 1000 to 3000 nM
Emax [1]: > 60%
